Test results taken from PubChem BioAssay AID248 (DTP/NCI, 2004).
Where “and” joins values, the source holds several entries; their conditions need not be identical. Identical values can stand only once. Toxic doses and inconclusive results are not listed. No stated cut-off is given here; in the data, active means T/C of 150% or more; inactive means T/C below 125%.

Test system: L1210 leukemia ip in BDF1 mice, survival T/C
Experiment: NCI In Vivo Anticancer Drug Screen. Data for tumor model L1210 Leukemia (intraperitoneal) in B6D2F1 (BDF1) mice
Settings: endpoint: mean survival time, higher = longer survival
Summary of the method: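 Tumor cells were implanted, animals were treated, and survival was followed. The result divides the treated measurement by the vehicle-control measurement.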

[1] = dose: 100.0 mg/kg/injection, schedule: Q01DX009 (ip), vehicle: saline with Tween-80
[2] = dose: 100.0 mg/kg/injection, schedule: Q04DX003 (ip), vehicle: saline with Tween-80
[3] = dose: 200.0 mg/kg/injection, schedule: Q01DX009 (ip), vehicle: saline with Tween-80
[4] = dose: 200.0 mg/kg/injection, schedule: Q04DX003 (ip), vehicle: saline with Tween-80
[5] = dose: 400.0 mg/kg/injection, schedule: Q01DX009 (ip), vehicle: saline with Tween-80
[6] = dose: 400.0 mg/kg/injection, schedule: Q04DX003 (ip), vehicle: saline with Tween-80
[7] = dose: 100.0 mg/kg/injection, schedule: Q04DX002 (ip), vehicle: Klucel (hydroxypropylcellulose) (HPC)
[8] = dose: 200.0 mg/kg/injection, schedule: Q04DX002 (ip), vehicle: Klucel (hydroxypropylcellulose) (HPC)
[9] = dose: 400.0 mg/kg/injection, schedule: Q04DX002 (ip), vehicle: Klucel (hydroxypropylcellulose) (HPC)
[10] = dose: 100.0 mg/kg/injection, schedule: Q04DX003 (ip), vehicle: saline
[11] = dose: 200.0 mg/kg/injection, schedule: Q04DX003 (ip), vehicle: saline
[12] = dose: 400.0 mg/kg/injection, schedule: Q04DX003 (ip), vehicle: saline
[13] = dose: 50.0 mg/kg/injection, schedule: Q01DX001 (ip), vehicle: saline
[14] = dose: 100.0 mg/kg/injection, schedule: Q01DX009 (ip), vehicle: Klucel (hydroxypropylcellulose) (HPC)
[15] = dose: 100.0 mg/kg/injection, schedule: Q04DX003 (ip), vehicle: Klucel (hydroxypropylcellulose) (HPC)
[16] = dose: 200.0 mg/kg/injection, schedule: Q01DX009 (ip), vehicle: Klucel (hydroxypropylcellulose) (HPC)
[17] = dose: 200.0 mg/kg/injection, schedule: Q04DX003 (ip), vehicle: Klucel (hydroxypropylcellulose) (HPC)
[18] = dose: 400.0 mg/kg/injection, schedule: Q04DX003 (ip), vehicle: Klucel (hydroxypropylcellulose) (HPC)
[19] = dose: 400.0 mg/kg/injection, schedule: Q01DX009 (ip), vehicle: Klucel (hydroxypropylcellulose) (HPC)

Measured: T/C

CCCCCCC(C)O[Si](C)c1ccccc1C (configuration not stated)
inactive: [1] 98 % of control | [2] 98 % of control | [3] 100 % of control | [4] 98 % of control | [5] 111 % of control | [6] 98 % of control

CCCC[n+]1ccccc1Cc1ccccc1
inactive: dose: 6.25 mg/kg/injection, schedule: Q04DX003 (ip), vehicle: saline 102 % of control | dose: 12.5 mg/kg/injection, schedule: Q04DX003 (ip), vehicle: saline 97 % of control

C1CCC2CCCCC2C1 (configuration not stated)
inactive: dose: 3.13 mg/kg/injection, schedule: Q04DX002 (ip), vehicle: saline with Tween-80 100 % of control | dose: 6.25 mg/kg/injection, schedule: Q04DX002 (ip), vehicle: saline with Tween-80 103 % of control | dose: 12.5 mg/kg/injection, schedule: Q04DX002 (ip), vehicle: saline with Tween-80 103 % of control | dose: 50.0 mg/kg/injection, schedule: Q04DX002 (ip), vehicle: saline 98 % of control | dose: 100.0 mg/kg/injection, schedule: Q04DX002 (ip), vehicle: saline 91 % of control | dose: 200.0 mg/kg/injection, schedule: Q04DX002 (ip), vehicle: saline 91 % of control | dose: 400.0 mg/kg/injection, schedule: Q04DX002 (ip), vehicle: saline 91 % of control

CNC(=O)Nc1ccc(Cl)cn1
inactive: dose: 25.0 mg/kg/injection, schedule: Q01DX009 (ip), vehicle: saline with Tween-80 100 % of control | dose: 50.0 mg/kg/injection, schedule: Q01DX009 (ip), vehicle: saline with Tween-80 97 % of control | [1] 98 % of control and 103 % of control

O=C(Nc1ccccc1Cl)Nc1cccc2ccccc12
inactive: [7] 105 % of control | [8] 102 % of control | [9] 98 % of control

CC12CCC3c4ccc(Oc5ccccc5N)cc4CCC3C1CCC2=O (configuration not stated)
inactive: dose: 100.0 mg/kg/injection, schedule: Q01DX001 (sc), vehicle: steriod suspending solution 101 % of control | dose: 200.0 mg/kg/injection, schedule: Q01DX001 (sc), vehicle: steriod suspending solution 95 % of control | dose: 400.0 mg/kg/injection, schedule: Q01DX001 (sc), vehicle: steriod suspending solution 89 % of control

CCC/C(=N/NC(=O)CNC(=O)c1ccccc1)c1ccccc1
inactive: [1] 100 % of control | [3] 96 % of control | [5] 92 % of control

COc1cccc(CC(C)N)c1OC (configuration not stated)
inactive: dose: 25.0 mg/kg/injection, schedule: Q04DX003 (ip), vehicle: saline 103 % of control | dose: 50.0 mg/kg/injection, schedule: Q04DX003 (ip), vehicle: saline 91 % of control | [10] 101 % of control

O=S1(=O)CC2(N3CCOCC3)CCCCC21 (configuration not stated)
inactive: dose: 50.0 mg/kg/injection, schedule: Q01DX001 (ip), vehicle: carboxymethylcellulose (CMC) 98 % of control | dose: 100.0 mg/kg/injection, schedule: Q01DX001 (ip), vehicle: carboxymethylcellulose (CMC) 104 % of control | dose: 200.0 mg/kg/injection, schedule: Q01DX001 (ip), vehicle: carboxymethylcellulose (CMC) 98 % of control

Nc1ccccc1SC(CC(=O)c1ccccc1)c1c(Cl)cccc1Cl (configuration not stated)
inactive: dose: 100.0 mg/kg/injection, schedule: Q01DX005 (ip), vehicle: Klucel (hydroxypropylcellulose) (HPC) 94 % of control | [7] 110 % of control | dose: 200.0 mg/kg/injection, schedule: Q01DX005 (ip), vehicle: Klucel (hydroxypropylcellulose) (HPC) 108 % of control | [8] 95 % of control | dose: 400.0 mg/kg/injection, schedule: Q01DX005 (ip), vehicle: Klucel (hydroxypropylcellulose) (HPC) 94 % of control | [9] 95 % of control

O=C(Cc1ccc(Cl)cc1)N/N=C/c1ccc([N+](=O)[O-])s1
inactive: [10] 93 % of control | [11] 93 % of control | [12] 90 % of control

Nc1ccc(OCCCc2c(-c3ccccc3)nc(N)[nH]c2=O)cc1
inactive: [13] 93 % of control | dose: 100.0 mg/kg/injection, schedule: Q01DX001 (ip), vehicle: saline 96 % of control | [10] 100 % of control | dose: 200.0 mg/kg/injection, schedule: Q01DX001 (ip), vehicle: saline 102 % of control | [11] 96 % of control | dose: 400.0 mg/kg/injection, schedule: Q01DX001 (ip), vehicle: saline 102 % of control | [12] 90 % of control

COCn1c(C(=O)c2ccc(OC)cc2)cc2ccccc21
inactive: [7] 102 % of control | [8] 95 % of control | [9] 98 % of control

NC(N)=N/N=C/c1ccc(O)c(S(=O)(=O)O)c1
inactive: dose: 15.0 mg/kg/injection, schedule: Q01DX Z (ip), vehicle: saline 97 % of control | dose: 30.0 mg/kg/injection, schedule: Q01DX Z (ip), vehicle: saline 90 % of control | dose: 60.0 mg/kg/injection, schedule: Q01DX Z (ip), vehicle: saline 87 % of control | dose: 60.0 mg/kg/injection, schedule: Q01DX Z (oral), vehicle: saline 97 % of control | dose: 120.0 mg/kg/injection, schedule: Q01DX Z (ip), vehicle: saline 90 % of control | dose: 120.0 mg/kg/injection, schedule: Q01DX Z (oral), vehicle: saline 104 % of control | dose: 240.0 mg/kg/injection, schedule: Q01DX Z (oral), vehicle: saline 95 % of control | dose: 480.0 mg/kg/injection, schedule: Q01DX Z (ip), vehicle: saline 90 % of control | dose: 480.0 mg/kg/injection, schedule: Q01DX Z (oral), vehicle: saline 95 % of control

O=S(O)c1cc(Br)ccc1Br
inactive: [14] 97 % of control | [15] 93 % of control | [16] 113 % of control | [17] 104 % of control | [18] 94 % of control

Clc1ccc(N/N=C(\Oc2ccccc2)c2ccccc2)cc1
inactive: [2] 104 % of control | [6] 98 % of control

Brc1ccc(Oc2ccccc2)cc1
inactive: [1] 101 % of control | [2] 102 % of control | [3] 95 % of control | [4] 97 % of control | [5] 97 % of control | [6] 108 % of control

C1CNC(CN2CCCC2)C1 (configuration not stated)
inactive: dose: 75.0 mg/kg/injection, schedule: Q01DX001 (ip), vehicle: saline 93 % of control | dose: 150.0 mg/kg/injection, schedule: Q01DX001 (ip), vehicle: saline 101 % of control | dose: 300.0 mg/kg/injection, schedule: Q01DX001 (ip), vehicle: saline 103 % of control

COc1ccc(OC)c(NC(=O)Nc2ccc(SC)cc2)c1
inactive: [14] 96 % of control | [16] 90 % of control | [19] 98 % of control

c1ccc(OCCC[P+](c2ccccc2)(c2ccccc2)c2ccccc2)cc1
inactive: [13] 100 % of control

CCCCCCCC(=O)Nc1ccccc1CC
inactive: [2] 93 % of control | [4] 95 % of control | [6] 86 % of control

COc1ccc(C(=O)N/N=C/c2ccccc2Cl)cc1
inactive: [14] 106 % of control | [16] 97 % of control | [19] 102 % of control

C=C(C)COC(N)=O
inactive: [1] 95 % of control | [2] 102 % of control | [3] 96 % of control | [4] 102 % of control | [5] 91 % of control | [6] 103 % of control

O=C1CCC(OC(=O)c2ccccc2)CCN1 (configuration not stated)
inactive: dose: 100.0 mg/kg/injection, schedule: Q01DX001 (ip), vehicle: acetone 102 % of control | dose: 200.0 mg/kg/injection, schedule: Q01DX001 (ip), vehicle: acetone 96 % of control | dose: 400.0 mg/kg/injection, schedule: Q01DX001 (ip), vehicle: acetone 94 % of control

O=C(Nc1ccc(F)cc1)C(c1ccccc1)c1ccccc1
inactive: [14] 108 % of control | [15] 90 % of control | [16] 101 % of control | [17] 93 % of control | [19] 95 % of control | [18] 88 % of control
